The values that follow are results of earlier work, collected in patent US20110256530A1, “PRODUCTS AND METHODS FOR TISSUE PRESERVATION” (GenVault Corporation, priority 2010, published 2011).

The conditions of series [1]: 25° C.
The test system of another series is nucleases. As to conditions: Table I, description in words.
For series [2] the following is noted: charge state, pH 7, literature references (30)-(33).

With `C=O` [formalin, methylene glycol], in series [1], the “permeation through tissue block” value was “about 1 mm of tissue block per hour”.

For `O=C(O)CN(CCN(CC(=O)O)CC(=O)O)CC(=O)O` [EDTA], the Activity result in the series on nucleases is listed as “Divalent Chelator, Inhibitor”.

For “Aurinetricarboxylic Acid [Aurinetricarboxylic Acid (ATA)n]”, the Activity entry in the series with nucleases was “derivative, broad spectrum”. Consider `OC[C@@H](O)[C@@H](O)[C@H](O)[C@H](O)CO` [Mannitol], for which the “Useful Chemical Properties” value in series [2] was “Neutral (31)”. For “Uridine-Vanadate [Uridine-Vanadate U-V04]”, in the series with nucleases, the Activity result is “RNase specific Inhibitor”. Take `Cn1cncc1C[C@H](NC(=O)CCN)C(=O)O` [Anserine, Anserine (Alanine-methyl-histidine)]: the “Useful Chemical Properties” value in series [2] is given as “Cation at pH 7 (32)”. On to `N[C@@H](Cc1c[nH]cn1)C(=O)O` [Histidine], for which, in series [2], the “Useful Chemical Properties” value is reported as “Neutral zwitterions”.

B1: RI: Large (~450 residues, ~49 kDa), acidic leucine-rich repeat protein that binds ribonucleases (protein, UniProt P13489 2-461, looked up)
Ribonuclease inhibitor: SLDIQSLDIQCEELSDARWAELLPLLQQCQVVRLDDCGLTEARCKDISSALRVNPALAELNLRSNELGDVGVHCVLQGLQTPSCKIQKLSLQNCCLTGAGCGVLSSTLRTLPTLQELHLSDNLLGDAGLQLLCEGLLDPQCRLEKLQLEYCSLSAASCEPLASVLRAKPDFKELTVSNNDINEAGVRVLCQGLKDSPCQLEALKLESCGVTSDNCRDLCGIVASKASLRELALGSNKLGDVGMAELCPGLLHPSSRLRTLWIWECGITAKGCGDLCRVLRAKESLKELSLAGNELGDEGARLLCETLLEPGCQLESLWVKSCSFTAACCSHFSSVLAQNRFLLELQISNNRLEDAGVRELCQGLGQPGSVLRVLWLADCDVSDSSCSSLAATLLANHSLRELDLSNNCLGDAGILQLVESVRQPGCLLEQLVLYDIYWSEEMEDRLQALEKDKPSLRVIS
With B1, the “complexes with certain ribonucleases” value with ribonucleases was “extremely tight complexes”.
